In US10758623B2, “Pharmaceutically active agent complexes, polymer complexes, and compositions and methods involving the same” (Durect Corporation, priority 2013, dated 2020):
Like-named read-outs stand apart in the source and are kept apart here. One block for each compound: values may come before it.

Assays:
Assay type in all cases: physicochemical
[1] = Stability following exposure to gamma radiation, RPLC purity (Example 30)
Text: The APIs were mixed with the complexable polymers at a ratio of 1:1, 1:4 or 1:10. The instantaneous precipitation was separated from reaction media (ammonium bicarbonate in water) and dried via lyophilization. The dried powder or the dried powder suspended in Benzyl Benzoate were loaded either in glass vial or plastic syringes (Intervene) and packed in aluminum pouches. These samples were exposed to gamma radiation (12.5 kGy-17.5 kGy) for more than 8 hrs at room temperature with radiation indicator sticker (Sterigenics, Corona, Calif.). These gamma irradiated samples were then analyzed for purity using reverse phase liquid chromatography (RPLC) in reference to non-gamma irradiated samples.

[2] = In vitro dissolution of decitabine and azacytidine from amine functionalized copolymer complex (Example 12); conditions: complex with amine functionalized copolymer (Example 2H); PBS pH 7.4, 37° C.; FIG. 7
Procedure: 1.00 g of decitabine or azacytidine powder was placed in a 150 mL wide-mouth glass jar. 100 mL of 50 mM NH4HCO3 solution were added, and the mixture was stirred at 400 rpm for 30 min at room temperature (until it became a visibly clear solution).
100 mL of a 10 mg/mL solution of functionalized complexation polymer were then prepared by stirring 1.00 g of polymer in 100 mL of MilliQ water at 400 rpm (until it became a clear solution).
(§1) The decitabine or azacytidine solution was combined with the complexation polymer solution at specific ratios as set forth below and monitored for precipitation. The combined materials were stirred for 30 min and then centrifuged in 50 mL Falcon™ tubes. The supernatant solution was removed for HPLC analysis to determine the quantity of free pharmaceutically active agent (not complexed). The resultant precipitate was resuspended in 50-100 mL of 50 mM NH4HCO3 solution and lyophilized according to the method described in Example 3.
Lyophilized complex powder was suspended in 1 mL ammonium bicarbonate (50 mM).
For dissolution or in vitro release testing, PBS (Phosphate buffered saline) pH˜7.4 was used as the medium, and the complexed powder was dispersed into the dissolution medium. […] The amount of decitabine or azacytidine in solution at each time point was determined by HPLC.

[3] = Attempted complexation of risperidone with carboxylate-functionalized 50:50 copolymer (Example 10); conditions: reaction mixture at pH ~5
Procedure: Dissolution experiments were conducted as set forth below to determine the in vitro release from a mixture of risperidone and a carboxylate-functionalized 50:50 copolymer prepared as described in Example 2E. […] This observation is mainly due to the limited solubilities of risperidone and the copolymer in the reaction mixture at pH˜5.
1.00 g of a risperidone powder was placed in a 150 mL wide-mouth glass jar. 100 mL of 50 mM NH4COOCH3 solution were added, and the mixture was stirred at 400 rpm for 30 min at room temperature (until it became a visibly clear solution).
100 mL of a 10 mg/mL solution of functionalized polymer were then prepared by stirring 1.00 g of polymer in 100 mL of MilliQ water at 400 rpm (until it became a clear solution).
as §1, with “pharmaceutically active agent” for “decitabine or azacytidine”, “the” for “the complexation”, “precipitated).” for “complexed).”, “NH4COOCH3” for “NH4HCO3”

stability after 15 kGy gamma irradiation, non-complexed API ([1]; RPLC, relative to the complexed APIs, with a corresponding reduction in potency): degraded faster
Compound: CCCCCCCCCCCCCCCC(=O)N[C@@H](CCC(=O)NCCCC[C@H](NC(=O)[C@H](C)NC(=O)[C@H](C)NC(=O)[C@H](CCC(N)=O)NC(=O)CNC(=O)[C@H](CCC(=O)O)NC(=O)[C@H](CC(C)C)NC(=O)[C@H](Cc1ccc(O)cc1)NC(=O)[C@H](CO)NC(=O)[C@H](CO)NC(=O)[C@@H](NC(=O)[C@H](CC(=O)O)NC(=O)[C@H](CO)NC(=O)[C@@H](NC(=O)[C@H](Cc1ccccc1)NC(=O)[C@@H](NC(=O)CNC(=O)[C@H](CCC(=O)O)NC(=O)[C@H](C)NC(=O)[C@@H](N)Cc1cnc[nH]1)[C@@H](C)O)[C@@H](C)O)C(C)C)C(=O)N[C@@H](CCC(=O)O)C(=O)N[C@@H](Cc1ccccc1)C(=O)N[C@H](C(=O)N[C@@H](C)C(=O)N[C@@H](Cc1c[nH]c2ccccc12)C(=O)N[C@@H](CC(C)C)C(=O)N[C@H](C(=O)N[C@@H](CCCNC(=N)N)C(=O)NCC(=O)N[C@@H](CCCNC(=N)N)C(=O)NCC(=O)O)C(C)C)[C@@H](C)CC)C(=O)O [Liraglutide]

Compound: Nc1ncn([C@@H]2O[C@H](CO)[C@@H](O)[C@H]2O)c(=O)n1 [azacytidine]
stability under the tested dissolution conditions [2]: significantly degraded

Compound: Cc1nc2n(c(=O)c1CCN1CCC(c3noc4cc(F)ccc34)CC1)CCCC2 [risperidone]
complexation outcome with carboxylate-functionalized 50:50 copolymer (Example 2E) [3]: precipitated separately

Compound: HGH: Human Growth Hormone (Biosolutions)
stability after 15 kGy gamma irradiation, non-complexed API [1]: degraded faster
